pEC50, pKi: −log10 of the molar value.
Assays:
Histamine H4 receptor [1] = molecular target: T1, Histamine H4 receptor (Homo sapiens, UniProt Q9H3N8); experiment: Displacement of [3H]histamine from human recombinant histamine H4 receptor
Histamine H4 receptor [2] = molecular target: T1, Histamine H4 receptor; experiment: Agonist activity at human recombinant histamine H4 receptor expressed in SK-N-MC cells assessed as effect on forskolin-stimulated cAMP-mediated reporter gene activity; type: functional, cell-based
Histamine H4 receptor [3] = molecular target: T1, Histamine H4 receptor; experiment: Antagonist activity at human recombinant histamine H4 receptor expressed in SK-N-MC cells assessed as inhibition of forskolin-stimulated cAMP-mediated reporter gene activity; type: functional, cell-based; settings: read-out: pA2 (converted)

| pKi (Histamine H4 receptor [1]) | pEC50 (Histamine H4 receptor [2]) | Kb (Histamine H4 receptor [3]) [nM] | SMILES |
| --- | --- | --- | --- |
| 8.22 | < 5.00 |  | CN[C@H]1CCN(c2ccnc(NC3CC4CCC3C4)c2)C1 (stereo partly specified) |
| 6.85 |  |  | CN1CCN(c2ccnc(N3CCCCC3)c2)CC1 |
| 6.41 |  |  | CN[C@H]1CCN(c2cnnc(NCC(C)C)c2)C1 |
| 8.22 |  | 10 | CN[C@@H]1CCN(c2cnnc(NC3CCCC3)c2)C1 |
| 7.68 |  |  | CN1CCN(c2ccnc(-c3ccsc3)c2)CC1 |
|  | < 5.00 | 6.31 | CN[C@@H]1CCN(c2ccnc(NC3CC4CCC3C4)c2)C1 (stereo partly specified) |
| 6.96 |  |  | CCCCNc1cc(N2CC[C@H](NC)C2)ccn1 |
| 9.10 | 5.50 | 79.4 | CN[C@@H]1CCN(c2ccnc(NC3CC4CCC3C4)n2)C1 (stereo partly specified) |
|  | 5.50 |  | CN[C@@H]1CCN(c2ccnc(NC(C)C)c2)C1 |
| 8.10 | 7.60 |  | CN[C@@H]1CCN(c2ccnc(NC(C)C)n2)C1 |
| 6.93 |  |  | CN[C@H]1CCN(c2ccnc(NC(C)C)n2)C1 |
| 6.62 |  |  | CN[C@H]1CCN(c2cnnc(NC3CCCC3)c2)C1 |
|  | 7.70 |  | CN1CCN(c2ccnc(NC3CC4CCC3C4)n2)CC1 (stereo unspecified) |
| 7.26 | 5.50 |  | CN[C@@H]1CCN(c2cnnc(NCC(C)C)c2)C1 |
| 7.01 |  |  | CN[C@@H]1CCN(c2ccnc(N3CCCCC3)c2)C1 |
| 6.67 |  |  | CN[C@@H]1CCN(c2ccnc(-c3ccsc3)c2)C1 |
| 6.44 |  |  | CN1CCN(c2cnnc(NC3CC4CCC3C4)c2)CC1 (stereo unspecified) |
| 7.92 |  |  | CC(C)c1cc(N2CC[C@@H](N)C2)nc(N)n1 [JNJ-39758979] |
| 8.10 | < 5.00 |  | CN[C@H]1CCN(c2ccnc(NC3CC4CCC3C4)n2)C1 (stereo partly specified) |
| 8.15 | 7.32 |  | CCCCNc1cc(N2CC[C@@H](NC)C2)ccn1 |
| 8.52 | 8.40 |  | CCCCNc1nccc(N2CC[C@@H](NC)C2)n1 |

| SMILES | pKi (Histamine H4 receptor [1]) | pEC50 (Histamine H4 receptor [2]) | Kb (Histamine H4 receptor [3]) [nM] |
| --- | --- | --- | --- |
| CC(C)CNc1cc(N2CCN(C)CC2)cnn1 | 5.00 |  |  |
| CN1CCN(c2ccnc(NC3CCCC3)c2)CC1 | 7.80 |  |  |
| CN1CCN(c2ccnc(NC3CCCC3)n2)CC1 | 7.20 | 7.12 |  |
| CCCCNc1cc(N2CCN(C)CC2)ccn1 | 6.75 |  |  |
| CCCCNc1nccc(N2CCN(C)CC2)n1 | 7.26 | 7.04 |  |
| CC(C)CNc1nccc(N2CCN(C)CC2)n1 |  | 7.08 |  |
| CC(C)Nc1nccc(N2CCN(C)CC2)n1 | 6.93 | 6.95 |  |

— ChEMBL document CHEMBL3393002, “Diaminopyrimidines, diaminopyridines and diaminopyridazines as histamine H4 receptor modulators” (Bioorg Med Chem Lett, 2015)
